Source: paper PMC10321224 (RSC Advances, 2023)

How the values were obtained:
[1] = tested on: DU-145 (hormone-refractory prostate cancer cells); assay: Resazurin antiproliferative assay, DU-145 cells; type: cell-based, human; conditions: towards HFF-1 cell lines
[2] = tested on: MDA-MB-231 (triple-negative breast cancer cells); assay: Resazurin antiproliferative assay, MDA-MB-231 cells; type: cell-based, human; conditions: towards HFF-1 cell lines

C[C@@H]1C[C@H](c2ccc(Br)cc2)c2c(cc3ccccn23)C(=O)O1 (racemic) [cis-4d]
Selectivity index (SI = CC50/IC50) HFF-1/DU-145 [1]: 0.03 | Selectivity index (SI = CC50/IC50) HFF-1/MDA-MB-231 [2]: 0.06

COc1cc(OC)cc([C@H]2C[C@@H](C)OC(=O)c3cc4ccccn4c32)c1 (racemic) [cis-4f]
Selectivity index (SI = CC50/IC50) HFF-1/DU-145 [1]: > 2 | Selectivity index (SI = CC50/IC50) HFF-1/MDA-MB-231 [2]: > 5
